# In patent publication US11969433B2, “Compositions and methods for muscle regeneration using prostaglandin E2” (The Board of Trustees of the Leland Stanford Junior …, priority 2016, dated 2024):
# Key:
# MuSCs [1] = assay: Young MuSC numbers after acute PGE2 treatment, hydrogel culture (hemocytometer count); type: cell-based, mouse; settings: ONO-AE3-208 1 μM, PGE2 10 ng/ml, 24 hr
# Description: (§1) Following isolation, we resuspended MuSCs in myogenic cell culture medium containing DMEM/F10 (50:50), 15% FBS, 2.5 ng ml^−1 fibroblast growth factor-2 (FGF-2 also known as bFGF) and 1% penicillin-streptomycin. We seeded MuSC suspensions at a density of 500 cells per cm^2 surface area. We maintained cell cultures at 37° C. in 5% CO2 and changed medium daily. […]
# (§2) To assay proliferation, we used three different assays (hemocytometer, VisionBlue, and EdU). […] For hemocytometer cell number count, we collected cells at indicated timepoints by incubation with 0.5% trypsin in PBS for 5 min at 37° C. and quantified them using a hemocytometer at least 3 times. Additionally, we used the VisionBlue Quick Cell Viability Fluorometric Assay Kit (BioVision, catalog #K303) as a readout for cell growth in culture. Briefly, we incubated MuSCs with 10% VisionBlue in culture medium for 3 h, and measured fluorescence intensity on a fluorescence plate reader (Infinite M1000 PRO, Tecan) at Ex=530-570 nm, Em=590-620 nm. […] We quantified EdU positive cells using the MetaMorph Image Analysis software (Molecular Devices). Data analyses were blinded, where researchers performing cell scoring were unaware of the treatment condition given to sample groups analyzed.
# [2] = system: hematopoietic, liver, and colon tissues; settings: delivery of 15-PGDH inhibitor; cited from earlier work
# MuSCs [3] = assay: Quantitative RT-PCR of MuSC transcripts; type: cell-based, mouse; settings: aged MuSCs, 1-day pulse
# Source text: We isolated RNA from MuSCs using the RNeasy Micro Kit (Qiagen). For muscle samples, we snap froze the tissue in liquid nitrogen, homogenized the tissues using a mortar and pestle, followed by syringe and needle trituration, and then isolated RNA using Trizol (Invitrogen). We reverse-transcribed cDNA from total mRNA from each sample using the SensiFAST™ cDNA Synthesis Kit (Bioline). We subjected cDNA to RT-PCR using SYBR Green PCR Master Mix (Applied Biosystems) or TaqMan Assays (Applied Biosystems) in an ABI 7900HT Real-Time PCR System (Applied Biosystems). We cycled samples at 95° C. for 10 min and then 40 cycles at 95° C. for 15 s and 60° C. for 1 min. To quantify relative transcript levels, we used 2-ΔΔCt to compare treated and untreated samples and expressed the results relative to Gapdh. For SYBR Green qRT-PCR, we used the following primer sequences: Gapdh. forward 5′-[…]-3′ (SEQ ID NO: 1), reverse 5′-CCCTTTTGGCTCCACCCT-3′ (SEQ ID NO: 2); Hpgd, forward 5′-[…]-3′ (SEQ ID NO: 3), reverse 5′-[…]-3′ (SEQ ID NO: 4); Ptges, forward 5′-GCTGTCATCACAGGCCAGA-3′ (SEQ ID NO: 5), reverse 5′-[…]-3′ (SEQ ID NO: 6); Ptges2, forward 5′-[…]-3′ (SEQ ID NO: 7), reverse 5′-[…]-3′ (SEQ ID NO: 8); Ptger1, forward 5′ GTGGTGTCGTGCATCTGCT-3′ (SEQ ID NO: 9), reverse, 5′ […]-3′ (SEQ ID NO: 10), and Ptger2, forward 5′-[…]-3′ (SEQ ID NO: 11), reverse 5′-[…]-3′ (SEQ ID NO: 12). TaqMan Assays (Applied Biosystems) were used to quantify Pax7. Myogenin. Slco2a1 (PGT), Ptger3 and Ptger4 in samples according to the manufacturer instructions with the TaqMan Universal PCR Master Mix reagent kit (Applied Biosystems). Transcript levels were expressed relative to Gapdh levels. For SYBR Green qPCR, Gapdh qPCR was used to normalize input cDNA samples. For Taqman qPCR, multiplex qPCR enabled target signals (FAM) to be normalized individually by their internal Gapdh signals (VIC).
# aged MuSCs = assay: Aged MuSC numbers after acute 24 hr treatment, hydrogel culture; type: cell-based, mouse; settings: 1-day pulse; PGE2 10 ng/ml or SW033291 1 μM; assayed day 7
# Description: as §1, §2
# endogenous MuSCs = assay: Endogenous MuSCs by Pax7-luciferase BLI after cardiotoxin injury; type: in vivo, mouse
# Description: We performed bioluminescence imaging (BLI) using a Xenogen-100 system, as previously described^1,5,6. Briefly, we anesthetized mice using isofluorane inhalation and administered 120 μL D-luciferin (0.1 mmol kg^−1, reconstituted in PBS; Caliper LifeSciences) by intraperitoneal injection. We acquired BLI using a 60 s exposure at F-stop=1.0 at 5 minutes after luciferin injection. Digital images were recorded and analyzed using Living Image software (Caliper LifeSciences). We analyzed images with a consistent region-of-interest (ROI) placed over each hindlimb to calculate a bioluminescence signal. We calculated a bioluminescence signal in radiance (p s^−1 cm^−2 sr^−1) value of 10^4 to define an engraftment threshold. This radiance threshold of 10^4 is approximately equivalent to the total flux threshold in p/s reported previously. This BLI threshold corresponds to the histological detection of one or more GFP+ myofibers^1,5,6. We performed BLI imaging every week after transplantation.
# For Pax7^CreERT2; Rosa26-LSL-Luc mice experiments, we treated mice with five consecutive daily intraperitoneal injections of tamoxifen to activate luciferase expression under the control of the Pax7 promoter. A week after the last tamoxifen injection, mice were subjected to intramuscular injection of 10 μl of cardiotoxin (10 μM; Latoxan), which we designated as day 0 of the assay. […]
# [4] = system: gastrocnemius (GA) muscle; assay: In vivo muscle force after downhill treadmill run, aged mice (Example 1); parameters: species or system mouse; settings: dmPGE2 daily 5 days in week 1, force at week 5
# Description: Aged mice (18 mo.) were subjected to downhill treadmill run for 2 consecutive weeks. During week 1, mice ran daily for 5 days and rested on days 6 and 7. Two hours after each treadmill run during week 1, each (lateral and medial) gastrocnemius (GA) muscle from both legs of each mouse was injected with a dose of either PBS (vehicle control) or 13 nM dmPGE2 (experimental group). During week 2, mice were subjected to 5 days treadmill run only. The treadmill run was performed using the Exer3/6 (Columbus Instruments). Mice ran for 10 minutes on the treadmill at 20 degrees downhill, starting at a speed of 7 meters/min. After 3 min, the speed was increased by 1 meter/min to a final speed of 14 meter/min. […] Force measurements were on the GA muscles at week 5 based on a protocol published previously^5. […] Data were collected with a PCI-6251 acquisition card (National Instruments) and analyzed in Matlab. We calculated specific force values by normalizing the force measurements by the muscle physiological cross-sectional areas (PCSAs), which were similar between the control and the experimental PGE2 treated group (Table 2). PCSA (measured in mm^2) was calculated according to the following equation^12: PCSA (mm^2)=[mass (g)×Cos θ]÷[ρ(g/mm^3)×fiber length (mm)], where θ is pennation angle of the fiber and ρ is muscle density (0.001056 g/mm^3). […]
# [5] = system: tibialis anterior (TA) muscle; assay: Intramuscular dmPGE2 after cardiotoxin injury of TA, histology (PAX7, myofiber CSA); type: in vivo, mouse
# Description: We used an injury model entailing intramuscular injection of 10 μl of notexin (10 μg ml^−1; Latoxan) or cardiotoxin (10 μM; Latoxan) into the TA muscle. For cryoinjury, an incision was made in the skin overlying the TA muscle and a copper probe, chilled in liquid nitrogen, was applied to the TA muscle for three 10 s intervals, allowing the muscle to thaw between each application of the cryoprobe. When indicated, 48 hr after injury either 16,16-Dimethyl Prostaglandin E2 (dmPGE2) (13 nmol, Tocris, catalog #4027) or vehicle control (PBS) was injected into the TA muscle. The contralateral TA was used as an internal control. We collected tissues 14 days post-injury for analysis.
# We collected and prepared recipient TA muscle tissues for histology as previously described^5,6. We incubated transverse sections with anti-LAMININ (Millipore, clone A5, catalog #05-206, 1:200), and anti-PAX7 (Santa Cruz Biotechnology, catalog #sc-81648, 1:50) primary antibodies and then with AlexaFluor secondary Antibodies (Jackson ImmunoResearch Laboratories, 1:200). We counterstained nuclei with DAPI (Invitrogen). We acquired images with an AxioPlan2 epifluorescent microscope (Carl Zeiss Microimaging) with Plan NeoFluar 10×/0.30NA or 20×/0.75NA objectives (Carl Zeiss) and an ORCA-ER digital camera (Hamamatsu Photonics) controlled by the SlideBook (3i) software. The images were cropped using Adobe Photoshop with consistent contrast adjustments across all images from the same experiment. The image composites were generated using Adobe Illustrator. We analyzed the number of PAX7 positive cells using the MetaMorph Image Analysis software (Molecular Devices), and the fiber area using the Baxter Algorithms for Myofiber Analysis that identified the fibers and segmented the fibers in the image to analyze the area of each fiber. For PAX7 quantification we examined serial sections spanning a depth of at least 2 mm of the TA. For fiber area at least 10 fields of LAMININ-stained myofiber cross-sections encompassing over 400 myofibers were captured for each mouse as above. Data analyses were blinded. The researchers performing the imaging acquisition and scoring were unaware of treatment condition given to sample groups analyzed.
# MuSCs [6] = assay: MuSC transplantation into injured TA muscle, engraftment by bioluminescence imaging; type: in vivo, mouse
# Tibialis anterior (TA) = assay: Muscle twitch force after injury and indomethacin injection; type: in vivo, mouse; settings: day 14 post-injury, indomethacin into cardiotoxin-injured muscles
smiles,measurement,setting,value
CC(C(=O)Nc1cc(C#N)ccc1CCCC(=O)O)c1ccc(F)c2ccccc12 (stereo not shown) [ONO-AE3-208],proliferation induced by PGE2 in presence of EP4 antagonist,MuSCs [1],blunted
CCCC[S+]([O-])c1sc2nc(-c3cccs3)cc(-c3ccccc3)c2c1N (stereo not shown) [SW033291],"regeneration of hematopoietic, liver, and colon tissues",[2],enhance regeneration
same,Pax7 expression in aged MuSCs,MuSCs [3],maintenance
same,proliferation of aged MuSCs,aged MuSCs,increase
"CCCCC(C)(C)[C@H](O)/C=C/[C@H]1[C@H](O)CC(=O)[C@@H]1C/C=C\CCCC(=O)O [dmPGE2, 16,16-dimethyl prostaglandin E2]",endogenous MuSCs assayed by Pax7-luciferase BLI,endogenous MuSCs; dmPGE2 3 days after cardiotoxin injury,Increase
same,specific tetanic force,[4],significantly increased
same,specific twitch force,[4],significantly increased
same,myofiber sizes,"[5]; aged mice, fourteen days post-injury",increase
same,increase in the number of endogenous MuSCs,"[5]; aged mice, fourteen days post-injury, single dmPGE2 injection",24±2%
same,distribution of myofibers (cross-sectional area),"[5]; young mice, day 14 post injury",shifted toward larger sizes
same,increase in endogenous PAX7-expressing MuSCs,"[5]; young mice, fourteen days post cardiotoxin injury, single dmPGE2 bolus",60+15%
same,effect on endogenous MuSCs in the absence of injury,"[5]; young mice, no injury",no effect
same,engraftment of aged MuSCs relative to controls,MuSCs [6]; aged MuSCs (250 cells) coinjected with dmPGE2,significantly enhanced
same,engraftment of young MuSCs relative to controls,MuSCs [6]; freshly sorted young MuSCs (250 cells) coinjected with 13 nmol dmPGE2,significantly enhanced
COc1ccc2c(c1)c(CC(=O)O)c(C)n2C(=O)c1ccc(Cl)cc1 [indomethacin],luciferase activity (muscle stem cell activation),endogenous MuSCs; indomethacin injected three days post-cardiotoxin injury,significant decrease
same,Twitch force compared to control group,Tibialis anterior (TA),significant loss
